Reference: the NIST ThermoML archive (doi:10.1021/je2001446)
Several values for one entry are separate records, joined by “and”; a condition that tells them apart may be missing. Equal values may be shown once. ± gives the expanded uncertainty stated by the source.

Legend:
[1] = Crystal
[2] = Molar enthalpy of transition or fusion; settings: Crystal

Row | SMILES | Normal melting temperature [1] | Molar enthalpy of transition or fusion [2] [kJ/mol]
1 | CCCC[n+]1cccc(C)c1.[Cl-] [1-butyl-3-methylpyridinium chloride] | 111.4 ± 0.8 °C and 109.8 ± 2.5 °C | 27.5 ± 3.2
2 | CCCCCCCCCC[n+]1cccc(C)c1.[Cl-] [1-decyl-3-methylpyridinium chloride] | 79.4 ± 0.8 °C and 75.6 ± 2.5 °C | 14.4 ± 3.1
3 | CCCCCCCCCCCC[n+]1cccc(C)c1.[Cl-] [1-dodecyl-3-methylpyridinium chloride] | 87.7 ± 0.8 °C and 86.8 ± 2.5 °C | 37.1 ± 3.3
4 | CCCCCC[n+]1cccc(C)c1.[Cl-] [1-hexyl-3-methylpyridinium chloride] | 82.0 ± 0.8 °C and 80 ± 2.5 °C | 19.7 ± 3.1
5 | CCCCCCCC[n+]1cccc(C)c1.[Cl-] [1-octyl-3-methylpyridinium chloride] | 80.1 ± 0.8 °C and 79.2 ± 2.5 °C | 14.9 ± 3.1
6 | CCCCCCCCCCCCCCCCCC[n+]1cccc(C)c1.[Cl-] [3-methyl-1-octadecylpyridinium chloride] | 112.2 ± 0.8 °C and 113 ± 2.5 °C | 28.1 ± 3.2

Further lines, results first:

Row | Normal melting temperature [1] | Molar enthalpy of transition or fusion [2] [kJ/mol] | SMILES
7 | 110 ± 0.8 °C and 110.0 ± 2.5 °C | 40.3 ± 3.4 | CCCCCCCCCCCCCCCC[n+]1cccc(C)c1.[Cl-] [1-hexadecyl-3-methylpyridinium chloride]
8 | 93.7 ± 0.8 °C and 94.6 ± 2.5 °C | 42.7 ± 3.4 | CCCCCCCCCCCCCC[n+]1cccc(C)c1.[Cl-] [1-tetradecyl-3-methylpyridinium chloride]
